The assay relates to L1210 leukemia ip in BDF1 mice, survival T/C. Kind of assay: NCI In Vivo Anticancer Drug Screen. Data for tumor model L1210 Leukemia (intraperitoneal) in B6D2F1 (BDF1) mice. The settings on record: endpoint: mean survival time, higher = longer survival. The essentials: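 Each compound was tested against a transplantable tumor grown in mice. The endpoint was survival, with treated animals benchmarked against vehicle controls as a simple ratio.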

The mark [1] stands for this setting: dose: 100.0 mg/kg/injection, schedule: Q04DX003 (ip), vehicle: saline.
Where [2] appears, read: dose: 100.0 mg/kg/injection, schedule: Q04DX002 (ip), vehicle: Klucel (hydroxypropylcellulose) (HPC).
[3] abbreviates: dose: 200.0 mg/kg/injection, schedule: Q04DX002 (ip), vehicle: Klucel (hydroxypropylcellulose) (HPC).
The mark [4] stands for this setting: dose: 100.0 mg/kg/injection, schedule: Q01DX009 (ip), vehicle: saline with Tween-80.
The mark [5] stands for this setting: dose: 200.0 mg/kg/injection, schedule: Q01DX009 (ip), vehicle: saline with Tween-80.
[6] abbreviates: dose: 400.0 mg/kg/injection, schedule: Q01DX009 (ip), vehicle: saline with Tween-80.
[7] abbreviates: dose: 100.0 mg/kg/injection, schedule: Q01DX001 (ip), vehicle: other.
Setting [8] is: dose: 200.0 mg/kg/injection, schedule: Q01DX001 (ip), vehicle: other.
[9] abbreviates: dose: 400.0 mg/kg/injection, schedule: Q01DX001 (ip), vehicle: other.
[10] abbreviates: dose: 100.0 mg/kg/injection, schedule: Q04DX003 (ip), vehicle: Klucel (hydroxypropylcellulose) (HPC).
Where [11] appears, read: dose: 200.0 mg/kg/injection, schedule: Q04DX003 (ip), vehicle: Klucel (hydroxypropylcellulose) (HPC).

Values joined by “and” are separate entries in the source; they are usually repeats but may differ in a detail not shown here. Equal values may be shown once. Toxic doses and inconclusive results are not listed.

For `Nc1nc(CBr)c(CCCCc2ccccc2)c(=O)[nH]1`, the T/C was 100 % of control (dose: 37.5 mg/kg/injection, schedule: Q01DX001 (ip), vehicle: saline with Tween-80) and 101 % of control (dose: 75.0 mg/kg/injection, schedule: Q01DX001 (ip), vehicle: saline with Tween-80).

As for `O=C(/C=C/c1ccccc1)NC12CC3CC(CC(C3)C1)C2`, the T/C is, setting by setting: under setting [1], 91 % of control; (dose: 200.0 mg/kg/injection, schedule: Q04DX003 (ip), vehicle: saline) 93 % of control; (dose: 400.0 mg/kg/injection, schedule: Q04DX003 (ip), vehicle: saline) 100 % of control.

For `CC12CCC3C(CC(=O)C45OC4C(O)CCC35C)C1CCC2=O` (stereo not given), the T/C (dose: 100.0 mg/kg/injection, schedule: Q01DX001 (sc), vehicle: steriod suspending solution) is 114 % of control; the T/C (dose: 200.0 mg/kg/injection, schedule: Q01DX001 (sc), vehicle: steriod suspending solution) was 114 % of control; the T/C (dose: 400.0 mg/kg/injection, schedule: Q01DX001 (sc), vehicle: steriod suspending solution) is 121 % of control.

As to `O=C1OCC/C1=C\c1ccccc1`, the T/C (dose: 100.0 mg/kg/injection, schedule: Q01DX001 (ip), vehicle: carboxymethylcellulose (CMC)) was 91 % of control and the T/C (dose: 200.0 mg/kg/injection, schedule: Q01DX001 (ip), vehicle: carboxymethylcellulose (CMC)) is 94 % of control.

As for `N#CCCN(CCC#N)[N+](=O)[O-]`, the T/C by setting is: (dose: 87.5 mg/kg/injection, schedule: Q01DX009 (ip), vehicle: Klucel (hydroxypropylcellulose) (HPC)) 97 % of control; under setting [2], 98 % of control; (dose: 100.0 mg/kg/injection, schedule: Q04DX002 (ip), vehicle: saline + alcohol) 97 % of control; (dose: 175.0 mg/kg/injection, schedule: Q01DX009 (ip), vehicle: Klucel (hydroxypropylcellulose) (HPC)) 100 % of control; under setting [3], 102 % of control; (dose: 200.0 mg/kg/injection, schedule: Q04DX002 (ip), vehicle: saline + alcohol) 105 % of control. Further, the T/C by setting is: (dose: 400.0 mg/kg/injection, schedule: Q04DX002 (ip), vehicle: Klucel (hydroxypropylcellulose) (HPC)) 87 % of control; (dose: 400.0 mg/kg/injection, schedule: Q04DX002 (ip), vehicle: saline + alcohol) 101 % of control.

Regarding `CC1=NCCN1CCN=C(N)CCl`, the T/C was 107 % of control (dose: 12.5 mg/kg/injection, schedule: Q04DX002 (ip), vehicle: saline); 111 % of control (dose: 25.0 mg/kg/injection, schedule: Q01DX009 (ip), vehicle: saline); 91 % of control (dose: 25.0 mg/kg/injection, schedule: Q04DX002 (ip), vehicle: saline); 101 % of control (dose: 50.0 mg/kg/injection, schedule: Q01DX009 (ip), vehicle: saline); 91 % of control (dose: 50.0 mg/kg/injection, schedule: Q04DX002 (ip), vehicle: saline).

For `CCn1c(C)cc(O)cc1=O`, the T/C was 94 % of control under setting [4], 92 % of control under setting [5] and 94 % of control under setting [6].

On to `O=C(Nc1ccc2c3c(cccc13)CC2)c1cccc([N+](=O)[O-])c1`, for which the T/C reads like this: (dose: 100.0 mg/kg/injection, schedule: Q01DX001 (ip), vehicle: saline with Tween-80) 102 % of control; (dose: 200.0 mg/kg/injection, schedule: Q01DX001 (ip), vehicle: saline with Tween-80) 94 % of control; (dose: 400.0 mg/kg/injection, schedule: Q01DX001 (ip), vehicle: saline with Tween-80) 96 % of control.

With `COc1c(NC(=O)C(Br)C(Br)C(=O)O)cccc1[N+](=O)[O-]` (stereo not given), the T/C was 100 % of control under setting [4], 95 % of control under setting [5] and 95 % of control under setting [6].

For `Cc1cc(Cl)c2ccccc2[n+]1C`, the T/C under setting [1] is 98 % of control.

Take `O=C(Nc1ccccc1)c1cc(Cl)cc(Cl)c1Br`: the T/C is, setting by setting: under setting [7], 96 % of control; under setting [8], 96 % of control; under setting [9], 95 % of control.

As for `N/C(N=Nc1ccccc1)=N\[N+](=O)[O-]`, the T/C was 100 % of control under setting [10]; 105 % of control under setting [11]; 86 % of control (dose: 400.0 mg/kg/injection, schedule: Q04DX003 (ip), vehicle: Klucel (hydroxypropylcellulose) (HPC)).

For `CO[C@@]12[C@H](COC(N)=O)C3=C(C(=O)C(C)=C(NCCO)C3=O)N1C[C@@H]1N[C@@H]12`, the T/C reads like this: (dose: 2.9 mg/kg/injection, schedule: Q01DX001 (ip), vehicle: acetone) 113 % of control; (dose: 4.3 mg/kg/injection, schedule: Q01DX001 (ip), vehicle: acetone) 117 % of control; (dose: 6.6 mg/kg/injection, schedule: Q01DX001 (ip), vehicle: saline) 113 % of control; (dose: 7.5 mg/kg/injection, schedule: Q01DX009 (ip), vehicle: saline) 91 % of control; (dose: 9.9 mg/kg/injection, schedule: Q01DX001 (ip), vehicle: saline) 111 % of control; (dose: 22.0 mg/kg/injection, schedule: Q01DX001 (ip), vehicle: saline) 113 % of control. Also, the T/C (dose: 33.0 mg/kg/injection, schedule: Q01DX001 (ip), vehicle: acetone) is 159 % of control.

`NC(=O)CCC(N)C(=O)O` (stereo not given): the T/C (dose: 6.25 mg/kg/injection, schedule: Q01DX009 (ip), vehicle: saline) was 108 % of control; the T/C under setting [4] is 97 % of control; the T/C (dose: 100.0 mg/kg/injection, schedule: Q04DX003 (ip), vehicle: saline with Tween-80) was 94 % of control; the T/C under setting [5] was 90 % of control; the T/C (dose: 200.0 mg/kg/injection, schedule: Q04DX003 (ip), vehicle: saline with Tween-80) was 93 % of control; the T/C under setting [6] is 93 % of control. Moreover, the T/C (dose: 400.0 mg/kg/injection, schedule: Q04DX003 (ip), vehicle: saline with Tween-80) was 96 % of control.

For `O=C(OC1CCCCC1c1ccccc1)c1cc([N+](=O)[O-])cc([N+](=O)[O-])c1` (stereo not given), the T/C is 89 % of control under setting [7], 89 % of control under setting [8] and 89 % of control under setting [9].

Consider `COc1cc(N=Nc2ccc([N+](=O)[O-])cc2C)ccc1N`, for which the T/C runs as follows: under setting [7], 97 % of control; under setting [8], 97 % of control; under setting [9], 86 % of control.

For `CCOC(=O)C1C(=O)C2CCc3c(ccc4ccccc34)N2C1=O` (stereo not given), the T/C is, setting by setting: under setting [10], 98 % of control; under setting [11], 104 % of control.

Regarding `C=C(C)C#CC(O)(C(=O)OCC)C1CCCC1` (stereo not given), the T/C is 100 % of control under setting [7], 93 % of control under setting [8] and 93 % of control under setting [9].

As for `O=C(CN1CCCCC1Cl)c1ccccc1` (stereo not given), the T/C is, setting by setting: (dose: 100.0 mg/kg/injection, schedule: Q01DX001 (ip), vehicle: saline) 105 % of control; under setting [1], 100 % of control.

As for `CCCCN(C)N=Nc1ccccc1C(N)=O`, the T/C reads like this: (dose: 89.0 mg/kg/injection, schedule: Q01DX009 (ip), vehicle: Klucel (hydroxypropylcellulose) (HPC)) 108 % of control; (dose: 89.0 mg/kg/injection, schedule: Q01DX009 (ip), vehicle: other) 108 % of control; (dose: 133.0 mg/kg/injection, schedule: Q01DX009 (ip), vehicle: Klucel (hydroxypropylcellulose) (HPC)) 122 % of control; (dose: 133.0 mg/kg/injection, schedule: Q01DX009 (ip), vehicle: other) 122 % of control; (dose: 177.0 mg/kg/injection, schedule: Q01DX001 (ip), vehicle: other) 97 % of control; (dose: 200.0 mg/kg/injection, schedule: Q01DX009 (ip), vehicle: Klucel (hydroxypropylcellulose) (HPC)) 115 % of control. The T/C was 108 % of control (dose: 200.0 mg/kg/injection, schedule: Q01DX009 (ip), vehicle: other); 113 % of control (dose: 266.0 mg/kg/injection, schedule: Q01DX001 (ip), vehicle: other); 111 % of control and 124 % of control (dose: 300.0 mg/kg/injection, schedule: Q01DX009 (ip), vehicle: Klucel (hydroxypropylcellulose) (HPC)); 95 % of control and 90 % of control (dose: 300.0 mg/kg/injection, schedule: Q01DX009 (ip), vehicle: other); 101 % of control under setting [9].

Consider `CN(C)Cc1ccccc1COC(=O)/C=C/c1ccccc1`, for which the T/C (dose: 50.0 mg/kg/injection, schedule: Q04DX002 (ip), vehicle: Klucel (hydroxypropylcellulose) (HPC)) is 101 % of control; the T/C under setting [2] was 94 % of control; the T/C under setting [3] is 97 % of control.

The values are drawn from PubChem BioAssay AID248 (DTP/NCI, 2004).
